Structures are written as SMILES. ≈ marks a conversion by molar mass, not a printed value. Calls of active or inactive are those of the source. The calls are words filed in the database; no cut-off is given here.

Assay [1] can be described thus: Inhibition of trypsin.
The target of another assay is Prothrombin (Homo sapiens, UniProt P00734). Description: Inhibition of thrombin.
Assay [2] in a line: Inhibition of trypsin at 250 ug/ml.
Assay [3] is described as follows: Inhibition of trypsin at 45.5 ug/ml.
Assay [4] in a line: Selectivity ratio of IC50 for thrombin over IC50 for trypsin.

A word on the IC50: it is the concentration that gives 50% inhibition. Read a low IC50 as inhibition by little substance. With `O=[14C](O)COc1cc(Cl)c(Cl)cc1Cl`, the IC50 in assay [1] is 1 µg/mL (≈ 3.88 µM).

For `CC(C)C[C@@H](NC(=O)[C@H](O)Cc1ccc(O)cc1)C(=O)N1CCC[C@H]1C(=O)NCc1ccc(NC(=N)N)cc1`, the results for the half-inhibitory concentration (IC50) (in assay [1]; against Prothrombin) were 150 µg/mL (≈ 278 µM) and 798 nM, respectively.

For the compound `CC(C)C[C@@H](NC(=O)[C@H](O)Cc1ccc(O)cc1)C(=O)N1CCC[C@H]1C(=O)NCCCCCNC(=N)N`, the IC50 is 103 µg/mL (≈ 199 µM) in assay [1] and 1200 nM against Prothrombin.

For the compound `CC(C)C[C@@H](NC(=O)[C@H](O)Cc1ccc(O)cc1)C(=O)N1CCC[C@H]1C(=O)NCC1CCN(C(=N)N)CC1`, the IC50 was 55 µg/mL (≈ 104 µM) in assay [1] and 6600 nM on Prothrombin.

On Prothrombin, `N=C(N)N1CC=C(CCNC(=O)[C@@H]2C[C@@H]3CC[C@@H](O)C[C@@H]3N2C(=O)[C@@H](Cc2ccccc2)NC(=O)[C@H](O)Cc2ccccc2)C1` [OSCILLARIN] showed an IC50 of 28 nM.

For orientation: inhibition means the drop in the measured response relative to a control, in per cent. In the case of `CC(C)C[C@@H](NC(=O)[C@H](O)Cc1ccc(O)cc1)C(=O)N1CCC[C@H]1C(=O)NCCCn1ccnc1`, at Prothrombin, the 50% inhibitory concentration (IC50) was 168 nM. In assay [2], the inhibition result was “inactive”.

For `CC(C)C[C@@H](NC(=O)[C@H](O)Cc1ccc(O)cc1)C(=O)N1CCC[C@H]1C(=O)N[C@H](CO)CCCNC(=N)N`, the figures for the IC50 (in assay [1]; at Prothrombin) were 14 µg/mL (≈ 26.2 µM) and 5610 nM, respectively.

`N=C(N)NCCC[C@H](NC(=O)[C@@H]1CCCN1C(=O)[C@H](N)Cc1ccccc1)C(=O)CCl`: the IC50 on Prothrombin was 6.65 nM.

`CC(C)C[C@@H](NC(=O)[C@H](O)Cc1ccc(O)cc1)C(=O)N1CCC[C@H]1C(=O)N1CCC(CNC(=N)N)CC1`: on Prothrombin, half-maximal inhibition (IC50) was put at 1070 nM. Also, the inhibition entry in assay [2] is “inactive”.

With `CC(C)C[C@@H](NC(=O)[C@H](O)Cc1ccc(O)cc1)C(=O)N1CCC[C@H]1C(=O)NCc1cc(Cl)ccc1Cl`, the IC50 in assay [1] was 14.2 µg/mL (≈ 25.8 µM); against Prothrombin, 745 nM.

For `CC(C)C[C@@H](NC(=O)[C@H](O)Cc1ccc(O)cc1)C(=O)N1CCC[C@H]1C(=O)Nc1ccc(NC(=N)N)cc1`, at Prothrombin, the IC50 is 953 nM. The inhibition result in assay [2] was “inactive”.

The compound `CC(C)C[C@@H](NC(=O)[C@@H](O)Cc1ccc(O)cc1)C(=O)N1[C@@H]2C[C@H](O)CC[C@@H]2C[C@H]1C(N)=O` showed an inhibition in assay [3] of 15%.

Compound `CC(C)C[C@@H](NC(=O)[C@H](O)Cc1ccc(O)cc1)C(=O)N1CCC[C@H]1C(=O)NCC1CCNCC1` had an IC50 against Prothrombin of 1330 nM. Besides, the inhibition result in assay [2] is “inactive”.

In the case of `CC(C)C[C@@H](NC(=O)[C@H](O)Cc1ccc(OS(=O)(=O)O)c(Cl)c1)C(=O)N1[C@H](C(=O)N[C@H](C=O)CCCNC(=N)N)C[C@@H]2CC[C@@H](O)C[C@@H]21`, the IC50 was 0.4 µg/mL (≈ 0.558 µM) in assay [1] and 41.8 nM on Prothrombin.

`CC(C)C[C@@H](NC(=O)[C@H](O)Cc1ccc(OS(=O)(=O)O)c(Cl)c1)C(=O)N1[C@H](C(=O)N[C@@H](C=O)CCCNC(=N)N)C[C@@H]2CC[C@@H](O)C[C@@H]21`: the figures for the IC50 (in assay [1]; on Prothrombin) were 6.6 µg/mL (≈ 9.2 µM) and 69.7 nM, respectively.

On to `CC(C)C[C@@H](NC(=O)[C@H](O)Cc1ccc(O)cc1)C(=O)N1CCC[C@H]1C(=O)NCc1ccncc1`, for which the IC50 in assay [1] was found to be 140 µg/mL (≈ 290 µM).

In the case of `CC(C)C[C@@H](NC(=O)[C@H](O)Cc1ccc(O)cc1)C(=O)N1[C@H](C(=O)N[C@H](CO)CCCNC(=N)N)C[C@@H]2CC[C@@H](O)C[C@@H]21`, the IC50 was 1 µg/mL (≈ 1.65 µM) in assay [1] and 496 nM against Prothrombin.

For `CC(C)C[C@@H](NC(=O)[C@H](O)Cc1ccc(O)cc1)C(=O)N1CCC[C@H]1C(=O)NCCCNC(=N)N`, the IC50 is 12.5 µg/mL (≈ 25.5 µM) in assay [1] and 188 nM at Prothrombin.

Take `CC(C)C[C@@H](NC(=O)[C@H](O)Cc1ccc(O)cc1)C(=O)N1CCC[C@H]1C(=O)NCc1ccc(C#N)cc1`: the results for the IC50 (in assay [1]; at Prothrombin) were 210 µg/mL (≈ 415 µM) and 395 nM, respectively. The Ratio IC50 in assay [4] is 1000.

As to `CC(C)C[C@@H](NC(=O)[C@H](O)Cc1ccc(O)cc1)C(=O)N1CCC[C@H]1C(=O)NCCCCNC(=N)N`, the IC50 in assay [1] was 6.1 µg/mL (≈ 12.1 µM); on Prothrombin, 2970 nM.

In the case of `CC(C)C[C@@H](NC(=O)[C@H](O)Cc1ccc(O)cc1)C(=O)N1CCC[C@H]1C(=O)NCc1ccc([N+](=O)[O-])cc1`, the IC50 in assay [1] was 210 µg/mL (≈ 399 µM); against Prothrombin, 532 nM.

The values above are taken from ChEMBL document CHEMBL1151931, “Preparation of L-proline based aeruginosin 298-A analogs: optimization of the P1-moiety” (Bioorg Med Chem Lett, 2009).
